Here are results for 16 molecules from patent US20240190892A1, “PLASMA KALLIKREIN INHIBITORS” (Merck Sharp & Dohme LLC, priority 2021, published 2024).

A word on the IC50: it is the concentration at which inhibition is half-maximal.

For one assay, the target named is Coagulation factor XIa (Homo sapiens (Human), UniProt P03951). The assay is described as follows: Factor XIa Assay. To be noted: human factor XIa 0.04 nM, substrate GPR-AFC, 30 min pre-incubation at 25° C., pH 7.4; read-out: FXIa IC50. Type of assay: biochemical. The method, then:
(§1) The effectiveness of a compound of the present invention as an inhibitor of Coagulation factor XIa can be determined using a relevant purified serine protease, and an appropriate synthetic substrate. The rate of hydrolysis of the chromogenic or fluorogenic substrate by the relevant serine protease was measured both in the absence and presence of compounds of the present invention. Assays were conducted at rt or at 37° C. […] A decrease in the rate of fluorescence change in the presence of inhibitor is indicative of enzyme inhibition. Such methods are known to one skilled in the art. The results of this assay are expressed as the half-maximal inhibitory concentrations (IC50), or the inhibitory constant, Ki.
Compounds were pre-incubated for 30 min at 25° C. with human (0.04 nM) factor XIa in 50 mM HEPES buffer with 150 mM sodium chloride, 5 mM calcium chloride, 0.1% PEG 8000, pH 7.4. factor XIa enzymatic activity was determined by addition of the substrate glycine-proline-arginine-7-amido-4-trifluoromethylcoumarin (GPR-AFC) and measurement of the fluorescence at 400/505 nm after a 60 min incubation at 25° C. The % inhibition for each data point was calculated from the data and analyzed using the log (inhibitor) vs. response four parameters equation to determine the half-maximal inhibitory concentrations (IC50). The IC50 were converted to equilibrium inhibitory constants (Ki) using the Cheng-Prusoff equation.

The target of the next assay is Human plasma kallikrein (Homo sapiens (Human), UniProt P03952). Kind of assay: Plasma Kallikrein Assay. Type of assay: biochemical. To be noted: purified Human plasma kallikrein 0.5 nM, substrate Acetyl-K-P-R-AFC, pH 7.4; read-out: PKal IC50. How it is done:
as §1, with “plasma kallikrein” for “Coagulation factor XIa”
Plasma kallikrein determinations were made in 50 mM HEPES buffer at pH 7.4 containing 150 mM NaCl, 5 mM CaCl2, and 0.1% PEG 8000 (polyethylene glycol; Fisher Scientific). Determinations were made using purified Human plasma kallikrein at a final concentration of 0.5 nM (Enzyme Research Laboratories) and the synthetic substrate, Acetyl-K-P-R-AFC (Sigma #C6608) at a concentration of […].
Activity assays were performed by diluting a stock solution of substrate at least tenfold to a final concentration ≤0.2 Km into a solution containing enzyme or enzyme equilibrated with inhibitor. Times required to achieve equilibration between enzyme and inhibitor were determined in control experiments. The reactions were performed under linear progress curve conditions and fluorescence increase measured at 405 Ex/510 Em nm. Values were converted to percent inhibition of the control reaction (after subtracting 100% Inhibition value). IC50 was determined by inflection point from a four parameter logistic curve fit. Ki was calculated using the Cheng Prusoff equation, Ki=IC50/(1+[S]/Km)).

Coagulation factor XIa, sequence (P03951 388-625 limits assumed): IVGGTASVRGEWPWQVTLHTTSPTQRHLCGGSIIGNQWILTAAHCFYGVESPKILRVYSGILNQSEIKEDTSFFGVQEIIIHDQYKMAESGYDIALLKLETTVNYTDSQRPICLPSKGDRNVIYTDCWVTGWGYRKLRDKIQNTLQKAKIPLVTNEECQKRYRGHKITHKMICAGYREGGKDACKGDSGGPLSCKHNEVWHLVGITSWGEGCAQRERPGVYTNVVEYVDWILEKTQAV
Coagulation factor XIa, sequence (P03951 19-387 partner limits assumed): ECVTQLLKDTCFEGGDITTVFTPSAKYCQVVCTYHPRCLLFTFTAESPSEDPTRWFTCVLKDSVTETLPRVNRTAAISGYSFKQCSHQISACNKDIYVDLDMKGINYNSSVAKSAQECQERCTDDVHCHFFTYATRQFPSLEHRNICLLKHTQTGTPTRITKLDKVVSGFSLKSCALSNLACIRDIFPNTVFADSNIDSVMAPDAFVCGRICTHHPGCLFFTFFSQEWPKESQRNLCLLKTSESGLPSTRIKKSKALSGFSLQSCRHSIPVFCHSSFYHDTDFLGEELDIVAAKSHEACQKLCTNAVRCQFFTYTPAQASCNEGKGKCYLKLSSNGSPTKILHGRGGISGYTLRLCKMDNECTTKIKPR
Human plasma kallikrein, sequence (P03952 391-638 limits assumed): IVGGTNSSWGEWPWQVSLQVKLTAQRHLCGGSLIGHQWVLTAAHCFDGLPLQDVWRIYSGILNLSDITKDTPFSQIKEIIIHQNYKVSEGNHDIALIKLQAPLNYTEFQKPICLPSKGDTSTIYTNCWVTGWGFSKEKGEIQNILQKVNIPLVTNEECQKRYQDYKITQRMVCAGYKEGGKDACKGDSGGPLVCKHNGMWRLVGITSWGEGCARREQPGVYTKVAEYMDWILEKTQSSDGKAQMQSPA
Human plasma kallikrein, sequence (P03952 20-390 partner limits assumed): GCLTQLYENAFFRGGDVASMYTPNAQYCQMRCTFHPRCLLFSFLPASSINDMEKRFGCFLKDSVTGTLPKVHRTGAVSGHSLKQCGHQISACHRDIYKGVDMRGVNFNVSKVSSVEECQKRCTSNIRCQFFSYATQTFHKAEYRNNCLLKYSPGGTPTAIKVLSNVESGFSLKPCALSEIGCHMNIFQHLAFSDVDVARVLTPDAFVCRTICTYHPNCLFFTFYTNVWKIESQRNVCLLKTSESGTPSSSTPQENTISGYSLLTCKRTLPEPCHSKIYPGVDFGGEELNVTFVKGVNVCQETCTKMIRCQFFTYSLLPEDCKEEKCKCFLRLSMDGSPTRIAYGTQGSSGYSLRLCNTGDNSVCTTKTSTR

With `Cc1cnn(Cc2ccc(CNC(=O)c3cncc(N4CC[C@]5(C4)OC(=O)Nc4ccc(Cl)c(F)c45)c3)cn2)c1` [Example 20, (S)-5-(6-Chloro-5-fluoro-2-oxo-1,2-dihydrospiro[benzo[d][1,3]oxazine-4,3′-pyrrolidin]-1′-yl)-N-((6-((4-methyl-1H-pyrazol-1-yl)methyl)pyridin-3-yl)methyl)nicotinamide], the figures for the IC50 on Coagulation factor XIa and at Human plasma kallikrein were 10 µM and 0.0013 µM, respectively.

`O=C1Nc2ccc(Cl)c(F)c2[C@]2(CCN(c3cc(C(=O)NCc4ccc(N5CCOCC5)nc4)cnn3)C2)O1` [Example 29, (S)-6-(6-Chloro-5-fluoro-2-oxo-1,2-dihydrospiro[benzo[d][1,3]oxazine-4,3′-pyrrolidin]-1′-yl)-N-((6-morpholinopyridin-3-yl)methyl)pyridazine-4-carboxamide]: the IC50 at Coagulation factor XIa stood at 10 µM; at Human plasma kallikrein, 0.005 µM.

Regarding `CN1CCCC1c1ccc(CNC(=O)c2cnnc(N3CC[C@]4(C3)OC(=O)Nc3ccc(Cl)c(F)c34)c2)cn1` (stereo in doubt) [Example 11, (S)-6-(6-Chloro-5-fluoro-2-oxo-1,2-dihydrospiro[benzo[d][1,3]oxazine-4,3′-pyrrolidin]-1′-yl)-N-((6-(1-methylpyrrolidin-2-yl)pyridin-3-yl)methyl)pyridazine-4-carboxamide], the IC50 worked out at 10 µM on Coagulation factor XIa and 0.0039 µM on Human plasma kallikrein.

On to `O=C1Nc2ccc(Cl)c(F)c2[C@]2(CCN(c3cc(C(=O)NCc4ccc(CN5CC(F)C5)cc4)cnn3)C2)O1` [Example 47, (S)-6-(6-chloro-5-fluoro-2-oxo-1,2-dihydrospiro[benzo[d][1,3]oxazine-4,3′-pyrrolidin]-1′-yl)-N-(4-((3-fluoroazetidin-1-yl)methyl)benzyl)pyridazine-4-carboxamide], for which the 50% inhibitory concentration (IC50) at Coagulation factor XIa came out at 10 µM; on Human plasma kallikrein, 0.0138 µM.

Turning to `O=C1Nc2ccc(Cl)c(F)c2[C@]2(CCN(c3cncc(C(=O)NCc4ccc(N5CCCC5)nc4)n3)C2)O1` [Example 2, (S)-6-(6-Chloro-5-fluoro-2-oxo-1,2-dihydrospiro[benzo[d][1,3]oxazine-4,3′-pyrrolidin]-1′-yl)-N-((6-(pyrrolidin-1-yl)pyridin-3-yl)methyl)pyrazine-2-carboxamide], the IC50 on Coagulation factor XIa worked out at 10 µM; at Human plasma kallikrein, 0.0068 µM.

As for `Nc1nccc2cc(CNC(=O)c3cncc(N4CC[C@]5(C4)OC(=O)Nc4ccc(Cl)c(F)c45)n3)ccc12` [Example 32, (S)-N-((1-Aminoisoquinolin-6-yl)methyl)-6-(6-chloro-5-fluoro-2-oxo-1,2-dihydrospiro[benzo[d][1,3]oxazine-4,3′-pyrrolidin]-1′-yl)pyrazine-2-carboxamide], the half-maximal inhibitory concentration (IC50) at Coagulation factor XIa was found to be 10 µM; at Human plasma kallikrein it was 0.019 µM.

In the case of `O=C1Nc2ccc(Cl)c(F)c2[C@]2(CCN(c3cc(C(=O)NCc4ccc(N5CCC(F)(F)C5)cc4F)cnn3)C2)O1` [Example 8, (S)-6-(6-Chloro-5-fluoro-2-oxo-1,2-dihydrospiro[benzo[d][1,3]oxazine-4,3′-pyrrolidin]-1′-yl)-N-(4-(3,3-difluoropyrrolidin-1-yl)-2-fluorobenzyl)pyridazine-4-carboxamide], the results for the IC50 at Coagulation factor XIa and at Human plasma kallikrein were 10 µM and 0.0304 µM, respectively.

Consider `CN1CCCC1c1ccc(CNC(=O)c2cnnc(N3CC[C@]4(C3)OC(=O)Nc3ccc(Cl)c(F)c34)c2)cc1` (stereo in doubt) [Example 10, (S)-6-(6-Chloro-5-fluoro-2-oxo-1,2-dihydrospiro[benzo[d][1,3]oxazine-4,3′-pyrrolidin]-1′-yl)-N-(4-(1-methylpyrrolidin-2-yl)benzyl)pyridazine-4-carboxamide], for which the figures for the IC50 at Coagulation factor XIa and at Human plasma kallikrein were 10 µM and 0.0025 µM, respectively.

`O=C1Nc2ccc(Cl)c(F)c2[C@]2(CCN(c3cncc(C(=O)NCc4ccc(N5CC(O)(C(F)(F)F)C5)nc4)n3)C2)O1` [Example 36, (S)-6-(6-Chloro-5-fluoro-2-oxo-1,2-dihydrospiro[benzo[d][1,3]oxazine-4,3′-pyrrolidin]-1′-yl)-N-((6-(3-hydroxy-3-(trifluoromethyl)azetidin-1-yl)pyridin-3-yl)methyl)pyrazine-2-carboxamide]: the IC50 at Coagulation factor XIa stood at 10 µM; at Human plasma kallikrein, 0.0437 µM.

As to `CN1CCN(c2ccc(CNC(=O)c3cnnc(N4CC[C@]5(C4)OC(=O)Nc4ccc(Cl)c(F)c45)c3)cn2)CC1` [Example 28, (S)-6-(6-Chloro-5-fluoro-2-oxo-1,2-dihydrospiro[benzo[d][1,3]oxazine-4,3′-pyrrolidin]-1′-yl)-N-((6-(4-methylpiperazin-1-yl)pyridin-3-yl)methyl)pyridazine-4-carboxamide], the figures for the half-maximal inhibitory concentration (IC50) at Coagulation factor XIa and on Human plasma kallikrein were 10 µM and 0.0019 µM, respectively.

Take `CC(C)N(C)Cc1ccc(CNC(=O)c2cnnc(N3CC[C@]4(C3)OC(=O)Nc3ccc(Cl)c(F)c34)c2)cc1` [Example 48, (S)-6-(6-Chloro-5-fluoro-2-oxo-1,2-dihydrospiro[benzo[d][1,3]oxazine-4,3′-pyrrolidin]-1′-yl)-N-(4-((isopropyl(methyl)amino)methyl)benzyl)pyridazine-4-carboxamide]: the IC50 at Coagulation factor XIa amounted to 10 µM; at Human plasma kallikrein it was 0.0059 µM.

Consider `COCC1CN(c2ccc(CNC(=O)c3cnnc(N4CC[C@]5(C4)OC(=O)Nc4ccc(Cl)c(F)c45)c3)cn2)C1` [Example 27, (S)-6-(6-Chloro-5-fluoro-2-oxo-1,2-dihydrospiro[benzo[d][1,3]oxazine-4,3′-pyrrolidin]-1′-yl)-N-((6-(3-(methoxymethyl)azetidin-1-yl)pyridin-3-yl)methyl)pyridazine-4-carboxamide], for which the IC50 at Coagulation factor XIa was found to be 10 µM; on Human plasma kallikrein, 0.0143 µM.

Consider `O=C1Nc2ccc(Cl)c(F)c2[C@]2(CCN(c3cncc(C(=O)NCc4ccc5c(n4)NCCC5)n3)C2)O1` [Example 31, (S)-6-(6-Chloro-5-fluoro-2-oxo-1,2-dihydrospiro[benzo[d][1,3]oxazine-4,3′-pyrrolidin]-1′-yl)-N-((5,6,7,8-tetrahydro-1,8-naphthyridin-2-yl)methyl)pyrazine-2-carboxamide], for which the IC50 worked out at 10 µM on Coagulation factor XIa and 0.0086 µM on Human plasma kallikrein.

Regarding `Cc1cnn(Cc2ccc(CNC(=O)c3cncc(N4CC[C@]5(C4)OC(=O)Nc4ccc(Cl)c(F)c45)n3)cn2)c1` [Example 21, (S)-6-(6-Chloro-5-fluoro-2-oxo-1,2-dihydrospiro[benzo[d][1,3]oxazine-4,3′-pyrrolidin]-1′-yl)-N-((6-((4-methyl-1H-pyrazol-1-yl)methyl)pyridin-3-yl)methyl)pyrazine-2-carboxamide], the IC50 on Coagulation factor XIa came out at 10 µM; at Human plasma kallikrein, 0.0023 µM.

Regarding `CN1CCN(c2ccc(CNC(=O)c3cncc(N4CC[C@]5(C4)OC(=O)Nc4ccc(Cl)c(F)c45)n3)cn2)CC1` [Example 43, (S)-6-(6-Chloro-5-fluoro-2-oxo-1,2-dihydrospiro[benzo[d][1,3]oxazine-4,3′-pyrrolidin]-1′-yl)-N-((6-(4-methylpiperazin-1-yl)pyridin-3-yl)methyl)pyrazine-2-carboxamide], the results for the IC50 at Coagulation factor XIa and on Human plasma kallikrein were 10 µM and 0.0017 µM, respectively.

For `C[C@H]1CCN(c2ccc(CNC(=O)c3cnnc(N4CC[C@]5(C4)OC(=O)Nc4ccc(Cl)c(F)c45)c3)cn2)C1` [Example 4, (S)-6-(6-Chloro-5-fluoro-2-oxo-1,2-dihydrospiro[benzo[d][1,3]oxazine-4,3′-pyrrolidin]-1′-yl)-N-((6-((S)-3-methylpyrrolidin-1-yl)pyridin-3-yl)methyl)pyridazine-4-carboxamide], the IC50 on Coagulation factor XIa turned out to be 7.44 µM; at Human plasma kallikrein, 0.0012 µM.
